Laboratory results as given in patent US10793563B2, “GCN2 inhibitors and uses thereof” (Merck Patent GmbH, priority 2018, dated 2020).
Like-named read-outs stand apart in the source and are kept apart here.

How the values were obtained:
GCN2 kinase = GCN2 kinase (Homo sapiens (Human), UniProt Q9P2K8); assay: GCN2 Enzyme Inhibition Assay (Transcreener ADP2 fluorescence polarization); assay type: biochemical; conditions: 280 μM ATP, 200 μM (RS)7 peptide, 4 nM GCN2, 25° C.; for Ki: Ki(app)
Outline: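 Transcreener ADP2 fluorescence polarization detection of ADP from 4 nM GCN2 with (RS)7 substrate in 25 mM Tris-HCl pH 7.5, 50 mM NaCl, 10 mM MgCl2, 1 mM DTT. Compound pre-incubated with enzyme 10 min at 25 °C; reaction started by ATP, run 1 h at 25 °C. IC50 and Ki(app) by tight-binding fit.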

[1] = molecular target: intracellular GCN2 (phosphorylation of the GCN2 substrate eIF2α) (Homo sapiens (Human), UniProt Q9P2K8); assay: GCN2 Cellular Inhibition Assay (AlphaScreen SureFire P-eIF2α Ser51, borrelidin-treated U2OS cells); assay type: cell-based; conditions: 10 μM borrelidin, 1 h
Sequence of intracellular GCN2 (phosphorylation of the GCN2 substrate eIF2α) (Q9P2K8 whole entry): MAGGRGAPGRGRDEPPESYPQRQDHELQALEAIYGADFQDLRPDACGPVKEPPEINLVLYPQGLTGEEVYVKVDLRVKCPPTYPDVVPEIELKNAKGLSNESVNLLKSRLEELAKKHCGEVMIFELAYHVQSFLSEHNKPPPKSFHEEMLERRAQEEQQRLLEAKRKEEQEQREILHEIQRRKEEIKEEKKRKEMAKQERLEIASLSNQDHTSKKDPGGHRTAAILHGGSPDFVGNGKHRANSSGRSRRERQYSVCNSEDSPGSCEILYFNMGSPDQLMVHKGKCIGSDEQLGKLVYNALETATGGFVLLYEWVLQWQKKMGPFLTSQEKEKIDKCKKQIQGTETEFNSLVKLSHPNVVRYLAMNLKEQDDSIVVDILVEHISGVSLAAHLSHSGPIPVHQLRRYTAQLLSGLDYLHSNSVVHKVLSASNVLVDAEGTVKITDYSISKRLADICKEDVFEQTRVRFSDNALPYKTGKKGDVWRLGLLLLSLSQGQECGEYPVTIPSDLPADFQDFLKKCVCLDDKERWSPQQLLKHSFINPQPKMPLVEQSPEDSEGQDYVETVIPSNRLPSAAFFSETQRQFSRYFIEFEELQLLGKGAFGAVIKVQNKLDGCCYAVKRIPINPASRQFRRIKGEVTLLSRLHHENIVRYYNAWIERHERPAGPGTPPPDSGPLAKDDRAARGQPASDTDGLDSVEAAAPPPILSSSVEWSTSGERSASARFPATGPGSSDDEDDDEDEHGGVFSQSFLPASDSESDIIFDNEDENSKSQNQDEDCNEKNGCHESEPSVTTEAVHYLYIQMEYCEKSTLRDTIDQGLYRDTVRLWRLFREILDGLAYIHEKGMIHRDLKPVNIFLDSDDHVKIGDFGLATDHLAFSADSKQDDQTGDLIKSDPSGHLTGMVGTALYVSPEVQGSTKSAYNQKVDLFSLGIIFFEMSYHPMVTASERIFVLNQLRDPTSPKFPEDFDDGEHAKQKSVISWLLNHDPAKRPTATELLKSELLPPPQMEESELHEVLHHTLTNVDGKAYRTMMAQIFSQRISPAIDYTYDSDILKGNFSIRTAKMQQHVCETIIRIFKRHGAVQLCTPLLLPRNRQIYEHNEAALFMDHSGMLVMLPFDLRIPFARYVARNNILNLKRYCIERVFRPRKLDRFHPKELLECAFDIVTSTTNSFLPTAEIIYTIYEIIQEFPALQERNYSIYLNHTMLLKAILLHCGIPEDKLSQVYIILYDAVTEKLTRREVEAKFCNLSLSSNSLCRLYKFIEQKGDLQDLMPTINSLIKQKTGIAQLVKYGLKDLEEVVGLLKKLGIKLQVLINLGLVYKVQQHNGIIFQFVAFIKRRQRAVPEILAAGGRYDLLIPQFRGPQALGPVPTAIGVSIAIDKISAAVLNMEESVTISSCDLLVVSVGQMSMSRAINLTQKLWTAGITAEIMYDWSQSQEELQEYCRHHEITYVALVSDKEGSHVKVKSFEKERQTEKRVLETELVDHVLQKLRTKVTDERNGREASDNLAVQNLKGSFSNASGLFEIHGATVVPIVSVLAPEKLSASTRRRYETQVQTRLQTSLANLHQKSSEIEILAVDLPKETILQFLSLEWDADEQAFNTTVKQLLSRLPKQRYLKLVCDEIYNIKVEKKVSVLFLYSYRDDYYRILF
Outline: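 U2OS cells adhered overnight, then given compound (top 40 μM, 4-fold serial dilutions) plus 10 μM borrelidin for 1 h at 37 °C. Lysates assayed for eIF2α phospho-Ser51 by AlphaScreen SureFire; % inhibition versus borrelidin-only wells.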

[2] = phosphorylated eIF2α Ser51, read-out: GCN2 Biomarker (IC50)

Sequence of GCN2 kinase (Q9P2K8 whole entry): as above

SMILES | IC50 (GCN2 kinase) | IC50 [1, 2] | Ki (GCN2 kinase) | IC50 ([1]; GCN2 Biomarker (IC50), phosphorylated eIF2α Ser51)
Cc1n[nH]cc1C1CN(c2ccnc(-c3cnc4ccc(C(F)(F)F)cn34)n2)CC(C)O1 (stereo not shown) [I-358, 2-methyl-6-(3-methyl-1H-pyrazol-4-yl)-4-(2-(6-(trifluoromethyl)imidazo[1,2-a]pyridin-3-yl)pyrimidin-4-yl)morpholine] | < 10 nM | < 500 nM | – | –
NC(=O)C1CN(c2ccnc(-c3cnc4cc(F)c(Cl)cn34)n2)CCN1C1CC1 (stereo not shown) [I-389, 4-(2-(6-chloro-7-fluoroimidazo[1,2-a]pyridin-3-yl)pyrimidin-4-yl)-1-cyclopropylpiperazine-2-carboxamide] | 10 to 100 nM | 500 to 5000 nM | – | –
O=C(CO)N1CCN(c2ccnc(-c3cnc4ccc(C(F)(F)F)cn34)n2)CC1c1cn[nH]c1 (stereo not shown) [I-421, 1-(2-(1H-pyrazol-4-yl)-4-(2-(6-(trifluoromethyl)imidazo[1,2-a]pyridin-3-yl)pyrimidin-4-yl)piperazin-1-yl)-2-hydroxyethan-1-one] | 10 to 100 nM | > 5000 nM | – | –
CC1CCC(C(=O)O)CN1c1ccnc(-c2cnc3ccc(C(F)(F)F)cn23)n1 (stereo not shown) [I-201, 6-methyl-1-(2-(6-(trifluoromethyl)imidazo[1,2-a]pyridin-3-yl)pyrimidin-4-yl)piperidine-3-carboxylic acid] | 10 to 100 nM | 500 to 5000 nM | – | –
FC(F)(F)c1ccc2ncc(-c3nccc(N4CCN[C@@H](c5cn[nH]c5)C4)n3)n2c1 [I-533, (S)-3-(4-(3-(1H-pyrazol-4-yl)piperazin-1-yl)pyrimidin-2-yl)-6-(trifluoromethyl)imidazo[1,2-a]pyridine] | < 10 nM | < 500 nM | – | –
FC(F)(F)c1ccc2ncc(-c3nccc(N4CCCC(n5cncn5)C4)n3)n2c1 (stereo not shown) [I-356, 3-(4-(3-(1H-1,2,4-triazol-1-yl)piperidin-1-yl)pyrimidin-2-yl)-6-(trifluoromethyl)imidazo[1,2-a]pyridine] | 10 to 100 nM | 500 to 5000 nM | – | –
CS(=O)(=O)NCC1CCCN(c2nsc(-c3cnc4ccc(C(F)(F)F)cn34)n2)C1 (stereo not shown) [I-110, N-((1-(5-(6-(trifluoromethyl)imidazo[1,2-a]pyridin-3-yl)-1,2,4-thiadiazol-3-yl)piperidin-3-yl)methyl)methanesulfonamide] | – | 500 to 5000 nM | < 10 nM | –
O=C(C1CC1(F)F)N1CCN(c2ccnc(-c3cnc4ccc(C(F)(F)F)cn34)n2)CC1c1cn[nH]c1 (stereo not shown) [I-400, (2-(1H-pyrazol-4-yl)-4-(2-(6-(trifluoromethyl)imidazo[1,2-a]pyridin-3-yl)pyrimidin-4-yl)piperazin-1-yl)(2,2-difluorocyclopropyl)methanone] | 10 to 100 nM | 500 to 5000 nM | – | –
Cc1noc([C@H]2CN(c3ccnc(-c4cnc5ccc(Cl)cn45)n3)C[C@@H](C)O2)n1 [I-54] | – | – | 10 to 100 nM | 500 to 5000 nM
Cn1cnc(C(=O)N2CCN(c3ccnc(-c4cnc5ccc(C(F)(F)F)cn45)n3)CC2c2cn[nH]c2)c1 (stereo not shown) [I-446, (2-(1H-pyrazol-4-yl)-4-(2-(6-(trifluoromethyl)imidazo[1,2-a]pyridin-3-yl)pyrimidin-4-yl)piperazin-1-yl)(1-methyl-1H-imidazol-4-yl)methanone] | 10 to 100 nM | 500 to 5000 nM | – | –
FC(F)(F)c1ccc2ncc(-c3nccc(N4CCNC(c5cn[nH]c5)C4)n3)n2c1 (stereo not shown) [I-351, 3-(4-(3-(1H-pyrazol-4-yl)piperazin-1-yl)pyrimidin-2-yl)-6-(trifluoromethyl)imidazo[1,2-a]pyridine] | < 10 nM | < 500 nM | – | –
CC1(C)CC1CN1CCN(c2ccnc(-c3cnc4ccc(C(F)(F)F)cn34)n2)CC1c1cn[nH]c1 (stereo not shown) [I-477, 3-(4-(4-((2,2-dimethylcyclopropyl)methyl)-3-(1H-pyrazol-4-yl)piperazin-1-yl)pyrimidin-2-yl)-6-(trifluoromethyl)imidazo[1,2-a]pyridine] | 10 to 100 nM | < 500 nM | – | –
C[C@H](NS(C)(=O)=O)[C@@H]1[C@H](C)N(c2ccnc(-c3cnc4ccc(C(F)(F)F)cn34)n2)CCN1C1CC1 [I-500, N—((S)-1-((2S,3 S)-1-cyclopropyl-3-methyl-4-(2-(6-(trifluoromethyl)imidazo[1,2-a]pyridin-3-yl)pyrimidin-4-yl)piperazin-2-yl)ethyl)methanesulfonamide] | 100 to 1000 nM | 500 to 5000 nM | – | –
FC(F)c1ccc2ncc(-c3nsc(N4CCOC(c5cn[nH]c5)C4)n3)n2c1 (stereo not shown) [I-105, 4-(3-(6-(difluoromethyl)imidazo[1,2-a]pyridin-3-yl)-1,2,4-thiadiazol-5-yl)-2-(1H-pyrazol-4-yl)morpholine] | – | > 5000 nM | 10 to 100 nM | –
O=C1NCC2CN(c3ccnc(-c4cnc5ccc(C(F)(F)F)cn45)n3)CCN12 (stereo not shown) [I-43, 7-[2-[6-(Trifluoromethyl)imidazo[1,2-a]pyridin-3-yl]pyrimidin-4-yl]-1,2,5,6,8,8a-hexahydroimidazo[1,5-a]pyrazin-3-one] | – | 500 to 5000 nM | < 10 nM | –
Cc1oncc1[C@H]1CN(c2ccnc(-c3cnc4ccc(C(F)(F)F)cn34)n2)C[C@H](C)O1 [I-345, (2S,6S)-2-methyl-6-(5-methylisoxazol-4-yl)-4-(2-(6-(trifluoromethyl)imidazo[1,2-a]pyridin-3-yl)pyrimidin-4-yl)morpholine] | 100 to 1000 nM | 500 to 5000 nM | – | –
C[C@H]1CN(c2ccnc(-c3cnc4ccc(C(F)(F)F)cn34)n2)[C@@H](C)[C@@H](c2cn[nH]c2)N1 (stereo in doubt) [I-37, 3-[4-[2,5-Dimethyl-3-(1H-pyrazol-4-yl)piperazin-1-yl]pyrimidin-2-yl]-6-(trifluoromethyl)imidazo[1,2-a]pyridine] | – | < 500 nM | < 10 nM | –
CC(C)n1cc(C2(O)CCCN(c3ccnc(-c4cnc5ccc(Cl)cn45)n3)C2)nn1 (stereo not shown) [I-76, 1-[2-(6-Chloro-imidazo[1,2-a]pyridin-3-yl)-pyrimidin-4-yl]-3-(1-isopropyl-1H-[1,2,3]triazol-4-yl)-piperidin-3-ol] | – | > 5000 nM | 100 to 1000 nM | –

Now from value to molecule, other results behind:

IC50 (GCN2 kinase) | IC50 [1, 2] | Ki (GCN2 kinase) | SMILES | IC50 ([1]; GCN2 Biomarker (IC50), phosphorylated eIF2α Ser51)
100 to 1000 nM | > 5000 nM | – | O=C(O)CC1CN(c2ccnc(-c3cnc4ccc(Cl)cn34)n2)CCO1 (stereo not shown) [I-298, 2-(4-(2-(6-chloroimidazo[1,2-a]pyridin-3-yl)pyrimidin-4-yl)morpholin-2-yl)acetic acid] | –
100 to 1000 nM | < 500 nM | – | Cc1nn(C)cc1[C@@H]1CN(c2nccc(-c3cnc4ccc(C(F)(F)F)cn34)n2)C[C@H](C)O1 [I-157, (2R,6S)-2-(1,3-dimethyl-1H-pyrazol-4-yl)-6-methyl-4-(4-(6-(trifluoromethyl)imidazo[1,2-a]pyridin-3-yl)pyrimidin-2-yl)morpholine] | –
– | 500 to 5000 nM | < 10 nM | CS(=O)(=O)NC[C@@H]1CN(c2cncc(-c3cnc4ccc(Cl)cn34)n2)CCO1 [I-113, (S)—N-((4-(6-(6-chloroimidazo[1,2-a]pyridin-3-yl)pyrazin-2-yl)morpholin-2-yl)methyl)methanesulfonamide] | –
10 to 100 nM | < 500 nM | – | C[C@H]1C[C@@H](N=S(C)(C)=O)CN(c2nccc(-c3cnc4ccc(Cl)cn34)n2)C1 (stereo in doubt) [I-159, (((3R,5S)-1-(4-(6-chloroimidazo[1,2-a]pyridin-3-yl)pyrimidin-2-yl)-5-methylpiperidin-3-yl)imino)dimethyl-λ6-sulfanone] | –
10 to 100 nM | 500 to 5000 nM | – | O[C@@H]1C[C@H](O)CN(c2ccnc(-c3cnc4ccc(C(F)(F)F)cn34)n2)C1 [I-238, (3R,5S)-1-(2-(6-(trifluoromethyl)imidazo[1,2-a]pyridin-3-yl)pyrimidin-4-yl)piperidine-3,5-diol] | –
< 10 nM | 500 to 5000 nM | – | NC(=O)C1CN(c2ccnc(-c3cnc4ccc(Cl)cn34)n2)CCN1C1CC1 (stereo not shown) [I-286, 4-(2-(6-chloroimidazo[1,2-a]pyridin-3-yl)pyrimidin-4-yl)-1-cyclopropylpiperazine-2-carboxamide] | –
< 10 nM | < 500 nM | – | NC(=O)[C@H]1CCCN(c2nccc(-c3cnc4ccc(C(F)(F)F)cn34)n2)C1 [I-153, (S)-1-(4-(6-(trifluoromethyl)imidazo[1,2-a]pyridin-3-yl)pyrimidin-2-yl)piperidine-3-carboxamide] | –
< 10 nM | < 500 nM | – | C[C@H]1C[C@@H](c2cn[nH]c2)CN(c2nccc(-c3cnc4ccc(Cl)cn34)n2)C1 [I-199, 6-chloro-3-(2-((3S,5S)-3-methyl-5-(1H-pyrazol-4-yl)piperidin-1-yl)pyrimidin-4-yl)imidazo[1,2-a]pyridine] | –
10 to 100 nM | < 500 nM | – | Cc1cnc(N2C[C@@H](C)C[C@H](c3cn[nH]c3)C2)nc1-c1cnc2ccc(Cl)cn12 (stereo in doubt) [I-197, 6-chloro-3-(5-methyl-2-((3 S, 5R)-3-methyl-5-(1H-pyrazol-4-yl)piperidin-1-yl)pyrimidin-4-yl)imidazo[1,2-a]pyridine] | –
100 to 1000 nM | 500 to 5000 nM | – | C[C@H](NS(C)(=O)=O)[C@H]1[C@@H](C)N(c2ccnc(-c3cnc4ccc(C(F)(F)F)cn34)n2)CCN1C1CC1 [I-507, N—((S)-1-((2R,3R)-1-cyclopropyl-3-methyl-4-(2-(6-(trifluoromethyl)imidazo[1,2-a]pyridin-3-yl)pyrimidin-4-yl)piperazin-2-yl)ethyl)methanesulfonamide] | –
< 10 nM | < 500 nM | – | Cc1cc(-c2cnc3ccc(Cl)cn23)nc(N2C[C@@H](c3c[nH]nc3C)O[C@@H](C)C2)n1 [I-221, (2S,6R)-4-(4-(6-chloroimidazo[1,2-a]pyridin-3-yl)-6-methylpyrimidin-2-yl)-2-methyl-6-(5-methyl-1H-pyrazol-4-yl)morpholine] | –
